Source: patent US10982284B2, “Compositions and methods APC, CREB, and BAD pathways to assess and affect cancer” (H. Lee Moffitt Cancer Center and Research Institute, Inc., priority 2011, dated 2021)

How the values were obtained:
Test in all cases: CellTiter-Blue cell viability assay
Assay type in all cases: cell-based, human
[1] = system: OV90; conditions: OV90 ovarian cancer cell line, 72 hours, 50% reduction in growth/viability
From the text: (§1) Ovarian cancer cell lines were obtained from the American Type Culture Collection (Manassas, Va.) (CAOV3, OV90, OVCAR3, SKOV3, TO[…]); from the European Collection of Cell Cultures, Salisbury, UK (A2780CP, A2780S); or from Kyoto University, Kyoto, Japan ([…], Tyknu, and TyknuC is R) or were kind gifts from Dr. Patricia Kruk, Department of Pathology, College of Medicine, University of South Florida, Tampa, Fla., and Susan Murphy, PhD, Dept of OBGYN/Division of GYN Oncology, Duke University, Durham, N.C. […] Cell lines were maintained in RPMI-1640 (Invitrogen, Carlsbad, Calif.) supplemented with 10% fetal bovine serum (Fisher Scientific, Pittsburgh, Pa.), 1% sodium pyruvate, 1% penicillin/streptomycin (Cellgro, Manassas, Va.), and 1% nonessential amino acids (HyClone, Hudson, N.H.). Mycoplasma testing was performed every 6 months following manufacturer's protocol (Lonza, Rockland, Me.). Drug activity was evaluated using a high-throughput CellTiter-Blue cell viability assay. […] After cell adherence, increasing concentrations of cisplatin, carboplatin (Sigma-Aldrich, St. Louis, Mo.), paclitaxel (Sequoia Research Products Ltd., Pangbourne, UK), or carboplatin plus paclitaxel (carbotaxol: constant molar ratio of carboplatin to paclitaxel of 20,000:1) were added to appropriate wells using an automated pipetting station. Four replicate wells were used for each drug concentration and vehicle controls. […] The cells were incubated with the drug for 72 hours, and 5 μL of CellTiter-Blue reagent (Promega Corp) was added to each well. Fluorescence was read at […] using a Synergy 4 microplate reader (Bio-Tek Instruments, Inc., Winooski, Vt.).

[2] = system: MCAS; conditions: MCAS ovarian cancer cell line, 72 hours, 50% reduction in growth/viability
From the text: as §1

[3] = system: A2780CP; conditions: A2780CP ovarian cancer cell line, 72 hours, 50% reduction in growth/viability
From the text: as §1

[4] = system: CHI; conditions: CHI ovarian cancer cell line, 72 hours, 50% reduction in growth/viability
From the text: as §1

[5] = system: M41; conditions: M41 ovarian cancer cell line, 72 hours, 50% reduction in growth/viability
From the text: as §1

[6] = system: CAOV2; conditions: CAOV2 ovarian cancer cell line, 72 hours, 50% reduction in growth/viability
From the text: as §1

[7] = system: OV2008; conditions: OV2008 ovarian cancer cell line, 72 hours, 50% reduction in growth/viability
From the text: as §1

[8] = system: Tyknu; conditions: Tyknu ovarian cancer cell line, 72 hours, 50% reduction in growth/viability
From the text: as §1

[9] = system: M41CSR; conditions: M41CSR ovarian cancer cell line, 72 hours, 50% reduction in growth/viability
From the text: as §1

[10] = system: TOV112D; conditions: TOV112D ovarian cancer cell line, 72 hours, 50% reduction in growth/viability
From the text: as §1

[11] = system: Ovary1847; conditions: Ovary1847 ovarian cancer cell line, 72 hours, 50% reduction in growth/viability
From the text: as §1

[12] = system: OVCAR10; conditions: OVCAR10 ovarian cancer cell line, 72 hours, 50% reduction in growth/viability
From the text: as §1

[13] = system: IMCC5; conditions: IMCC5 ovarian cancer cell line, 72 hours, 50% reduction in growth/viability
From the text: as §1

[14] = system: OVCAR4; conditions: OVCAR4 ovarian cancer cell line, 72 hours, 50% reduction in growth/viability
From the text: as §1

[15] = system: OVCAR2; conditions: OVCAR2 ovarian cancer cell line, 72 hours, 50% reduction in growth/viability
From the text: as §1

[16] = system: HeyA8; conditions: HeyA8 ovarian cancer cell line, 72 hours, 50% reduction in growth/viability
From the text: as §1

[17] = system: CAOV3; conditions: CAOV3 ovarian cancer cell line, 72 hours, 50% reduction in growth/viability
From the text: as §1

[18] = system: TyknuCisR; conditions: TyknuCisR ovarian cancer cell line, 72 hours, 50% reduction in growth/viability
From the text: as §1

[19] = system: CHIcisR; conditions: CHIcisR ovarian cancer cell line, 72 hours, 50% reduction in growth/viability
From the text: as §1

[20] = system: C13; conditions: C13 ovarian cancer cell line, 72 hours, 50% reduction in growth/viability
From the text: as §1

[21] = system: BG1; conditions: BG1 ovarian cancer cell line, 72 hours, 50% reduction in growth/viability
From the text: as §1

[22] = system: OVCA433; conditions: OVCA433 ovarian cancer cell line, 72 hours, 50% reduction in growth/viability
From the text: as §1

[23] = system: Dov13; conditions: Dov13 ovarian cancer cell line, 72 hours, 50% reduction in growth/viability
From the text: as §1

[24] = system: A2008; conditions: A2008 ovarian cancer cell line, 72 hours, 50% reduction in growth/viability
From the text: as §1

[25] = system: OVCAR3; conditions: OVCAR3 ovarian cancer cell line, 72 hours, 50% reduction in growth/viability
From the text: as §1

[26] = system: OVCAR8; conditions: OVCAR8 ovarian cancer cell line, 72 hours, 50% reduction in growth/viability
From the text: as §1

[27] = system: A2780S; conditions: A2780S ovarian cancer cell line, 72 hours, 50% reduction in growth/viability
From the text: as §1

## N.N.O=C([O-])C1(C(=O)[O-])CCC1.[Pt+2] [Carboplatin, carboplatin]
[1]
  IC50: 213 µM
[2]
  IC50: 237 µM
[3]
  IC50: 94.2 µM
[4]
  IC50: 23.6 µM
[5]
  IC50: 41.6 µM
[6]
  IC50: 70.2 µM
[7]
  IC50: 45.1 µM
[8]
  IC50: 9.6 µM
[9]
  IC50: 48.2 µM
[10]
  IC50: 75.8 µM
[11]
  IC50: 172 µM
[12]
  IC50: 128 µM
[13]
  IC50: 41.3 µM
[14]
  IC50: 72 µM
[15]
  IC50: 45.5 µM
[16]
  IC50: 291 µM
[17]
  IC50: 69.4 µM
[18]
  IC50: 63.7 µM
[19]
  IC50: 20 µM
[20]
  IC50: 56.8 µM
[21]
  IC50: 144 µM
[22]
  IC50: 270 µM
[23]
  IC50: 104 µM
[24]
  IC50: 20.2 µM
[25]
  IC50: 83.7 µM
[26]
  IC50: 56.1 µM
[27]
  IC50: 24.3 µM

## CC(=O)O[C@H]1C(=O)[C@@]2(C)[C@H]([C@H](OC(=O)c3ccccc3)[C@]3(O)C[C@H](OC(=O)[C@H](O)[C@@H](NC(=O)c4ccccc4)c4ccccc4)C(C)=C1C3(C)C)[C@]1(OC(C)=O)CO[C@@H]1C[C@@H]2O [Paclitaxel, paclitaxel]
[1]; Homo sapiens, OV-90
  IC50: 0.108 µM
[2]; Homo sapiens
  IC50: 0.0029 µM
[3]; Homo sapiens, A2780C/P
  IC50: 0.004 µM
[4]; Homo sapiens
  IC50: 0.000999 µM
[5]; Homo sapiens
  IC50: 0.0063 µM
[6]; Homo sapiens
  IC50: 0.0204 µM
[7]; Homo sapiens
  IC50: 0.0139 µM
[8]; Homo sapiens
  IC50: 0.0083 µM
[9]; Homo sapiens
  IC50: 0.0025 µM
[10]; Homo sapiens
  IC50: 0.111 µM
[11]; Homo sapiens
  IC50: 0.0056 µM
[12]; Homo sapiens
  IC50: 0.0071 µM
[13]; Homo sapiens
  IC50: 0.0031 µM
[14]; Homo sapiens, OVCAR-4
  IC50: 0.0178 µM
[15]; Homo sapiens
  IC50: 0.0028 µM
[16]; Homo sapiens, HEY A8
  IC50: 0.0174 µM
[17]; Homo sapiens, Caov-3
  IC50: 0.0046 µM
[18]; Homo sapiens
  IC50: 0.0072 µM
[19]; Homo sapiens
  IC50: 0.0018 µM
[20]; Homo sapiens
  IC50: 0.0032 µM
[21]; Homo sapiens, BG-1
  IC50: 0.0055 µM
[22]; Homo sapiens
  IC50: 0.0021 µM
[23]; Homo sapiens
  IC50: 0.0173 µM
[24]; Homo sapiens
  IC50: 0.0058 µM
[25]; Homo sapiens, OVCAR-3
  IC50: 0.0169 µM
[26]; Homo sapiens, OVCAR-8
  IC50: 0.0057 µM
[27]; Homo sapiens
  IC50: 0.0024 µM
